Results: article PMC10298982, “Stability Characterization of the Novel Anti-Cancer HM-10/10 HDL-Mimetic Peptide” (International Journal of Molecular Sciences, 2023)

How the values were obtained:
in vitro [1] = conditions: cynomolgus monkey, plasma, pH 7.4
[2] = tested on: cynomolgus monkey plasma proteins; conditions: 2.5 h, 2 µM, pH 7.4
[3] = tested on: beagle dog plasma proteins; conditions: 2.5 h, 2 µM, pH 7.4
in vitro [4] = conditions: beagle, dog, plasma, pH 7.4
in vitro [5] = conditions: Sprague-Dawley, rat, plasma, pH 7.4
in vitro [6] = conditions: CD-1, mouse, plasma
[7] = tested on: Sprague-Dawley rat plasma proteins; conditions: 2.5 h, 2 µM, pH 7.4

fraction unbound at 2.5 h, 2 µM (in vitro [1]): 0.0086 ± 0.00116
% Protein Free Mean ± SD [2]: 0.9 ± 0.1%
% Protein Free Mean ± SD [3]: 3.1 ± 0.4%
fraction unbound at 2.5 h, 2 µM (in vitro [4]): 0.0305 ± 0.0036
remaining at 2.5 h, 2 µM (in vitro [4]): 105%
remaining at 2.5 h, 2 µM (in vitro [5]): 105%
remaining at 2.5 h, 2 µM (in vitro [6]; pH 7.4): 108%
fraction unbound at 2.5 h, 2 µM (in vitro [6]; pH 7.4, % Protein Free Mean ± SD): 0.04 ± 0.002
fraction unbound at 2.5 h, 2 µM (in vitro [6]; pH 7.4, Fu (Unbound Fraction) Mean ± SD): 0.0398 ± 0.0016
% Protein Free Mean ± SD [7]: 0.7 ± 0.1%
SMILES: CC(=O)CC(c1ccccc1)c1c(O)c2ccccc2oc1=O (stereo not shown) [Warfarin]
